Laboratory results as given in the NIST ThermoML archive (doi:10.1016/j.jct.2010.10.016).

How the values were obtained:
[1] = relative permittivity at various frequencies (dimensionless); xn = mol fraction of the nth substance listed; conditions: 101 kPa, Liquid, Frequency=3 MHz, AC method
[2] = xn = mol fraction of the nth substance listed; conditions: 101 kPa, Liquid; for viscosity: Capillary tube (Ostwald / Ubbelohde) method; for mass density: Pycnometric method; for speed of sound: Resonance method

COCCO [2-methoxyethan-1-ol] + C[N+](=O)[O-]
x2 = 0
Conditions | mass density, [2] [kg/m3] | relative permittivity, [1] | speed of sound, [2] [m/s] | viscosity, [2] [mPa·s]
293.15 K | 964.88 | 17.38 | 1359.3 | 1.708
298.15 K | 960.29 | 16.96 | 1342.1 | 1.544
303.15 K | 955.77 | 16.56 | 1325.1 | 1.404
308.15 K | 951.19 | 16.16 | 1313.5 | 1.246
313.15 K | 946.21 | 15.77 | 1296.8 | 1.098

C[N+](=O)[O-] [nitromethane] + CCCCOCCO
x1 = 1
Conditions | mass density, [2] [kg/m3] | relative permittivity, [1] | speed of sound, [2] [m/s] | viscosity, [2] [mPa·s]
293.15 K | 1137.63 | 37.31 | 1340.2 | 0.648
298.15 K | 1130.62 | 36.52 | 1320.4 | –
298.45 K | – | – | – | 0.619
303.15 K | 1123.6 | 35.66 | 1298.1 | 0.584
308.15 K | 1116.86 | 34.92 | 1281.2 | 0.563
313.15 K | 1109.87 | 34.09 | 1262.8 | 0.545
